According to patent US7713994B2 (Wyeth LLC, priority 2005, dated 2010):

Assays:
cyclin B/CDK1 enzyme = target: T1, cyclin B/CDK1 enzyme (Homo sapiens, UniProt P06493); test: CDK1 ELISA kinase assay (phospho-Rb ser 795 detection); format: biochemical; conditions: In Vitro Enzyme Assays, read-out: CDK1 IC50
T1 construct: purchased New England BioLabs; host or cells: Sf9 insect cells, recombinant baculovirus
Method in brief: (§1)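 ELISA format: plate-bound GST-Rb, 200 μM ATP, Sf9 cyclin/CDK enzyme, 1 h at 30° C; then anti-pRb Ser795 primary overnight at 4° C, HRP secondary, TMB. IC50 after no-substrate background subtraction.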

BT474 = test: Cytotoxicity assay (SRB), BT474; format: cell-based; conditions: Homo sapiens, BT-474, 144 h, BT474 cells, SRB, 6 days; read-out: In Vitro Cellular Activity IC50 BT474
Method in brief: (§2)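 Growth inhibition, SRB method: 3-day continuous compound exposure for HCT-116, LoVo and MCF-7 and 6-day exposure for BT474. Absorbance at 540 nm reflects surviving cell protein relative to controls.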

LoVo = test: Cytotoxicity assay (SRB), LoVo; format: cell-based; conditions: Homo sapiens, LoVo, 72 h, LoVo cells, SRB, three days; read-out: In Vitro Cellular Activity IC50 LOVO
Method in brief: as §2

cyclin D1/cdk 4 enzyme = target: T2, cyclin D1/cdk 4 enzyme (Homo sapiens, UniProt P11802); test: CDK4 ELISA kinase assay (phospho-Rb ser 795 detection); format: biochemical; conditions: In Vitro Enzyme Assays, 200 μM ATP, read-out: CDK4 IC50
T2 construct: made in house; host or cells: Sf9 insect cells, recombinant baculovirus
Method in brief: as §1

cyclin E/CDK2 enzyme = target: T3, cyclin E/CDK2 enzyme (Homo sapiens, UniProt P24941); test: CDK2 ELISA kinase assay (phospho-Rb ser 795 detection); format: biochemical; conditions: In Vitro Enzyme Assays, read-out: CDK2 IC50
T3 construct: made in house; host or cells: Sf9 insect cells, recombinant baculovirus
Method in brief: as §1

Cyclin D1/CDK6 = target: T4, Cyclin D1/CDK6 (Homo sapiens, UniProt Q00534); test: Cyclin D1/CDK6 Elisa; format: biochemical; conditions: 200 μM ATP
T4 construct: made in house; host or cells: Sf9 insect cells, recombinant baculovirus
Procedure: Cyclin D1/CDK6 was expressed in insect cells (Sf9) infected with recombinant baculovirus and partially purified using ammonium sulfate fractionation. Test compounds were diluted in 20% DMSO/20 mM HEPES, pH 7.5 and serial dilutions were prepared (5 concentrations; 0.005-50 µM). High-binding ELISA microtiter plates (Costar) were coated with the kinase substrate (glutathione-S-transferase (GST) fusion of C-terminal fragment of the retinoblastoma susceptibility gene product (Rb). Non-specific binding sites were blocked with Superblock in Tris-buffered saline (TBS; Pierce). Kinase reactions contained the test inhibitor, 200 μM ATP, 0.5 mg/ml bovine serum albumin (BSA; Sigma), and 0.1 μl cyclin D1/cdk 6. Reaction volumes were adjusted to 30 μl with kinase assay buffer (50 mM HEPES, pH 7.5, 10 mM MgCl2, 5% glycerol, 10 mM 2-mercaptoethanol), and plates were incubated at 30° C. for 1 hour. Reactions were terminated by aspiration, and non-specific sites were blocked with blocking buffer (TBS containing 0.1% Tween-20 and 5% nonfat dry milk). Phoshporylation of the substrate was detected using phospho-Rb specific antibodies (ser-795) (Cell Signalling Technologies) and anti-rabbit IgG/horseradish peroxidase conjugates (Amersham Life Science) using TMB as substrate. Colourimetric reactions were stopped with 2N sulphuric acid and the absorbance was measured at 450 nm (Molecular Devices). IC50 values were determined from inhibition plots.

IGF1-receptor kinase = target: T5, IGF1-receptor kinase (Homo sapiens, UniProt P08069); test: IGF1-R kinase assay (96-well FRET Lance); format: biochemical; conditions: for IC50: 100 micromolar ATP, read-out: Igfr ic50
T5 construct: Purified GST-IGFR; purified Bis-IGFR and Tris-IGFR; fused on or other part: GST with a thrombin cleavage site, removed in the Bis-IGFR and Tris-IGFR forms
From the text: • TITLE: 96-well assay for inhibitors of IGF1-receptor kinase activity • SHORT TITLE: IGF1-R kinase assay • PURPOSE: Identify inhibitors of IGF-1 receptor kinase activity • MATERIALS AND METHODS: Overview: This is a 96-well FRET (Lance) tyrosine kinase assay. • Materials: • Purified GST-IGFR; purified Bis-IGFR and Tris-IGFR; expressed in ExpresSF insect cells. Bis and Tris IGFR are made by phosphorylating the IGFR in the presence of ATP and Mg2+, followed by thrombin cleavage to remove the GST-thrombin cleavage site, and purification by HPLC. The Bis and tris IGFR are phosphorylated on two (bis) or all three tyrosines (tris) in the activation loop. • Biotinylated peptide with a sequence corresponding to the sequence surrounding the autophosphorylation sites in IGF1-R Biotin-NH2-[…]-OH (Anaspec) • Europium-conjugated phosphotyrosine antibody (PT66) (Perkin-Elmer). • Surelight APC (Perkin-elmer) • Plates: 96-well Assay plates (polypropylene plates, natural color) • 96-well-Lance plates (Microfluor 2 black plates; Cat # 7205; Thermolabsystems. • ATP: (Amersham Pharmacia Cat # 27-2056-01), 100 mM stock. • IGFR Lance Protocol (96-well format) • Procedure: • Reagents: • Kinase Buffer (10×): • 0.5 M Hepes, pH 7.5 rt • 0.1 M MgCl2 • Quench Buffer (to be added straight, 1:1, to r×n mix): • 50 mM Hepes, pH 7.5 rt • 50 mM EDTA • Lance Detection Buffer: • 20 mM Tris-HCl, pH 7.5 rt • 0.15 M NaCl-150 • 150 ug/ml BSA (Sigma Cat# A-7284) • Eu-labeled phosphotyrosine antibody PT66 (Perkin-Elmer): 1:4000 dilution of 200 μg/ml stock • Streptavidin-APC (Perkin Elmer): 1/250 (4 microgram/ml final) • ATP (Amersham Pharmacia cat #27-2056-01) 100 mM stock: Dilute to 1 mM (10×) in water. […] Transfer 12.5[…] of the kinase reaction to the antibody detection plate. Allow antibody to react for 1 h at rt in the dark. Then read in Victor with an excitation filter of 340 nm and an emission filter of 665 nm. • Compound additions: • When Example compounds are tested, they are added from a 10% DMSO/50 mM Hepes (pH 7.5) 10× stock. 5 microliters of compound in this buffer are added to the enzyme-peptide-buffer mix. After 10′ incubation at room temperature, ATP is added to start the reaction. A no ATP background control is included in the assay. • […] OF RESULTS: Data are analyzed as follows: % Inhibition={[Sample cpm−Bkg cpm]/[No cmpd cpm−Bkg cpm]}×100%. The biological activity of representative Examples of the invention is reported in Table VII as: 0.2 µM≦x≦10 µM or % inhibition@10 µM.

T5 sequence (P08069 999-1274 limits assumed): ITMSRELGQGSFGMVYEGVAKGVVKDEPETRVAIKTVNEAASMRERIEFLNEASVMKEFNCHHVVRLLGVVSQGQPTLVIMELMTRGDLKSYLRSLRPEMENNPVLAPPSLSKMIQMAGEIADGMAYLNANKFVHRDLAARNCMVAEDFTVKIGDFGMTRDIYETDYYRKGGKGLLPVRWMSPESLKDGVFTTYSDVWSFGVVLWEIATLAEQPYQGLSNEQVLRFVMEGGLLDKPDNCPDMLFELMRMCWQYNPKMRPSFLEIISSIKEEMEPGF
T4 sequence (Q00534 whole entry, species assumed): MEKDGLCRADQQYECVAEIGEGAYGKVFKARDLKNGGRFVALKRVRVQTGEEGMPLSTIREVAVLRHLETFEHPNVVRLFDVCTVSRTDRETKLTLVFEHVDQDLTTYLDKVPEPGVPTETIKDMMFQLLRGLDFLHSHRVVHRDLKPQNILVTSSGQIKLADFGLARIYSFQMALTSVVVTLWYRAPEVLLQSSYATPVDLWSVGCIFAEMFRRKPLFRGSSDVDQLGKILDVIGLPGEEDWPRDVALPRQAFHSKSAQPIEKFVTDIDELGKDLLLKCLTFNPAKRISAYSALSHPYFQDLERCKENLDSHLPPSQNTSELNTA
T4 sequence (P24385 whole entry partner, species assumed): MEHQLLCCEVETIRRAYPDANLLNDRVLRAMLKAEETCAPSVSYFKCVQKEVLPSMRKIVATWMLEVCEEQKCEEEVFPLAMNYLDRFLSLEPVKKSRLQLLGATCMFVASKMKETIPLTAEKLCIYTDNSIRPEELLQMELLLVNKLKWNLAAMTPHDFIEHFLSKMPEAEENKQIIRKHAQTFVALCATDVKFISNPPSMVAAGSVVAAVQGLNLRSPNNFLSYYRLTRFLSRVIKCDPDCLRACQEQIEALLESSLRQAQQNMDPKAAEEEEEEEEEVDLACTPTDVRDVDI
T1 sequence (P06493 whole entry): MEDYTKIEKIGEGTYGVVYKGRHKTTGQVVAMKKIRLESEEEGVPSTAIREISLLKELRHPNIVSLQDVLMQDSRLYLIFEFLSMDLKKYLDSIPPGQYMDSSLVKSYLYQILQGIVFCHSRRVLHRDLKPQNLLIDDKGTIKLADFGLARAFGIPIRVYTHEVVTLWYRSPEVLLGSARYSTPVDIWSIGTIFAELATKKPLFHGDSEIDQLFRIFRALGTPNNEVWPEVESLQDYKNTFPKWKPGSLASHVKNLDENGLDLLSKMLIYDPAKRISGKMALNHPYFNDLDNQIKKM
T1 sequence (P14635 whole entry partner): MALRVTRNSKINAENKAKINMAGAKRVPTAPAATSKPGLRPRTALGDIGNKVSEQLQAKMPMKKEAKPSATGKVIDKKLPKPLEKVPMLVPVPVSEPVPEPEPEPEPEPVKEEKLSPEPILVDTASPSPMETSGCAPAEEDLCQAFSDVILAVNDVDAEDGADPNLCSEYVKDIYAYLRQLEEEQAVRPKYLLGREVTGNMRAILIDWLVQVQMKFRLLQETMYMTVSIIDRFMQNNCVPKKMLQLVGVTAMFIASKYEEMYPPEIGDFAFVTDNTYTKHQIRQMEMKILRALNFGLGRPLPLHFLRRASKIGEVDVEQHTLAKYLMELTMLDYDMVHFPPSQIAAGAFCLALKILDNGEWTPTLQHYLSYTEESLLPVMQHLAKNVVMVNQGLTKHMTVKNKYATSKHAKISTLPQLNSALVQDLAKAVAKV
T2 sequence (P11802 whole entry, species assumed): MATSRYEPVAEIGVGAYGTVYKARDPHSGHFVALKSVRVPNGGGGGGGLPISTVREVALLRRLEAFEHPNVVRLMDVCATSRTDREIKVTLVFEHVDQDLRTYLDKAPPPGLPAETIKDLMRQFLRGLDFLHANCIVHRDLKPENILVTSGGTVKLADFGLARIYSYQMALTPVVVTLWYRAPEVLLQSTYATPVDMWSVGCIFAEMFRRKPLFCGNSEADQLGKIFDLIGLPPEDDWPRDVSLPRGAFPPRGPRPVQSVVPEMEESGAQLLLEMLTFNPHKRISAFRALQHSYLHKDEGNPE
T2 sequence (P24385 whole entry partner, species assumed): as the sequence (P24385 whole entry partner, species assumed) above

Row | IC50 (IGF1-receptor kinase) [µM] | Compound | further results
1 | 0.868 | COc1ccc(Nc2ccc3c(c2)/C(=C/Nc2ccc(CN4CCCCC4)cc2)C(=O)NC3=O)cc1 [Example 898, (4Z)-6-[(4-methoxyphenyl)amino]-4-({[4-(piperidin-1-ylmethyl)phenyl]amino}methylene)isoquinoline-1,3(2H,4H)-dione] | –
2 | 6.03 | CC(=O)c1ccc(Nc2ccc3c(c2)/C(=C/Nc2ccc(CN4CCCCC4)cc2)C(=O)NC3=O)cc1 [Example 901, (4Z)-6-[(4-acetylphenyl)amino]-4-({[4-(piperidin-1-ylmethyl)phenyl]amino}methylene)isoquinoline-1,3(2H,4H)-dione] | –
3 | 2.62 | O=C1NC(=O)c2ccc(Nc3cccc(Cl)c3)cc2/C1=C/Nc1ccc(CN2CCCCC2)cc1 [Example 905] | –
4 | 0.566 | COc1ccc(Nc2ccc3c(c2)/C(=C/Nc2ccc(CN(C)C)cc2)C(=O)NC3=O)cc1 [Example 908, (4Z)-4-[({4-[(dimethylamino)methyl]phenyl}amino)methylene]-6-[(4-methoxyphenyl)amino]isoquinoline-1,3(2H,4H)-dione] | –
5 | 6.16 | O=C1NC(=O)c2ccc(Nc3cccc4ncccc34)cc2/C1=C/Nc1ccc(CN2CCCCC2)cc1 [Example 913, (4Z)-4-({[4-(piperidin-1-ylmethyl)phenyl]amino}methylene)-6-(quinolin-5-ylamino)isoquinoline-1,3(2H,4H)-dione] | –

Further lines, the compound ahead of its results:

Row | Compound | IC50 (IGF1-receptor kinase) [µM] | further results
6 | CN1CCN(c2ccc(N/C=C3\C(=O)NC(=O)c4ccc(I)cc43)cc2)CC1 [Example 81, (4Z)-6-Iodo-4-({[4-(4-methylpiperazin-1-yl)phenyl]amino}methylene)isoquinoline-1,3(2H,4H)-dione] | – | IC50 (cyclin B/CDK1 enzyme): > 50 µM; IC50 (BT474): 2.8 µM; IC50 (LoVo): 5.1 µM; IC50 (cyclin D1/cdk 4 enzyme): 0.48 µM; IC50 (cyclin E/CDK2 enzyme): > 50 µM; IC50 (Cyclin D1/CDK6): 0.1 µM
7 | N#Cc1ccc(Nc2ccc3c(c2)/C(=C/Nc2ccc(CN4CCCCC4)cc2)C(=O)NC3=O)cc1 [Example 897, 4-{[(4Z)-1,3-dioxo-4-({[4-(piperidin-1-ylmethyl)phenyl]amino}methylene)-1,2,3,4-tetrahydroisoquinolin-6-yl]amino}benzonitrile] | 1.52 | –
8 | O=C1NC(=O)c2ccc(Nc3cccc(F)c3)cc2/C1=C/Nc1ccc(CN2CCCCC2)cc1 [Example 899, (4Z)-6-[(3-fluorophenyl)amino]-4-({[4-(piperidin-1-ylmethyl)phenyl]amino}methylene)isoquinoline-1,3(2H,4H)-dione] | 3.09 | –
9 | COc1cc(Nc2ccc3c(c2)/C(=C/Nc2ccc(CN4CCCCC4)cc2)C(=O)NC3=O)cc(C(F)(F)F)c1 [Example 900] | – | Igfr % Inhibition at 10 uM (IGF1-receptor kinase; 10 uM compound): 20%
10 | N#Cc1ccccc1Nc1ccc2c(c1)/C(=C/Nc1ccc(CN3CCCCC3)cc1)C(=O)NC2=O [Example 902, 2-{[(4Z)-1,3-dioxo-4-({[4-(piperidin-1-ylmethyl)phenyl]amino}methylene)-1,2,3,4-tetrahydroisoquinolin-6-yl]amino}benzonitrile] | 3.7 | –
11 | CCOC(=O)c1ccc(Nc2ccc3c(c2)/C(=C/Nc2ccc(CN4CCCCC4)cc2)C(=O)NC3=O)cc1 [Example 903, ethyl 4-{[(4Z)-1,3-dioxo-4-({[4-(piperidin-1-ylmethyl)phenyl]amino}methylene)-1,2,3,4-tetrahydroisoquinolin-6-yl]amino}benzoate] | – | inhibition at 10 µM (IGF1-receptor kinase; 10 uM compound, read-out: Igfr % Inhibition at 10 uM): 45%
12 | O=C1NC(=O)c2ccc(Nc3ccccc3Cl)cc2/C1=C/Nc1ccc(CN2CCCCC2)cc1 [Example 904, (4Z)-6-[(2-chlorophenyl)amino]-4-({[4-(piperidin-1-ylmethyl)phenyl]amino}methylene)isoquinoline-1,3-(2H,4H)-dione] | 1.7 | –
13 | CN(C)Cc1ccc(N/C=C2\C(=O)NC(=O)c3ccc(Nc4ccccc4)cc32)cc1 [Example 906, (4Z)-6-anilino-4-[({4-[(dimethylamino)methyl]phenyl}amino)methylene]isoquinoline-1,3(2H,4H)-dione] | 0.92 | –
14 | COc1cccc(Nc2ccc3c(c2)/C(=C/Nc2ccc(CN(C)C)cc2)C(=O)NC3=O)c1 [Example 907, (4Z)-4-[({4-[(dimethylamino)methyl]phenyl}amino)methylene]-6-[(3-methoxyphenyl)amino]isoquinoline-1,3(2H,4H)-dione] | 1.39 | –
15 | CC(=O)c1cccc(Nc2ccc3c(c2)/C(=C/Nc2ccc(CN(C)C)cc2)C(=O)NC3=O)c1 [Example 909, (4Z)-6-[(3-acetylphenyl)amino]-4-[({4-[(dimethylamino)methyl]phenyl}amino)methylene]isoquinoline-1,3(2H,4H)-dione] | 0.887 | –
16 | CC(=O)c1cccc(Nc2ccc3c(c2)/C(=C/Nc2ccc(N4CC(C)NC(C)C4)cc2)C(=O)NC3=O)c1 (centres unmarked) [Example 910, (4Z)-6-[(3-acetylphenyl)amino]-4-({[4-(3,5-dimethylpiperazin-1-yl)phenyl]amino}methylene)isoquinoline-1,3(2H,4H)-dione] | 0.54 | –
17 | CCN(CC)Cc1ccc(N/C=C2\C(=O)NC(=O)c3ccc(Nc4ccc(C)cc4)cc32)cc1 [Example 911, (4Z)-4-[({4-[(diethylamino)methyl]phenyl}amino)methylene]-6-[(4-methylphenyl)amino]isoquinoline-1,3(2H,4H)-dione] | 1.16 | –
18 | O=C1NC(=O)c2ccc(Nc3ccc4[nH]ccc4c3)cc2/C1=C/Nc1ccc(CN2CCCCC2)cc1 [Example 912] | – | Igfr % Inhibition at 10 uM (IGF1-receptor kinase; 10 uM compound): 9%
